Data as given in US9249129B2, “Morpholino substituted urea derivatives as mTOR inhibitors” (CELLZOME LIMITED, priority 2010, dated 2016).

Experiments:
Experiment in all cases: kinobeads assay with mass spectrometry detection of kinases (kinase selectivity profile)
Assay type in all cases: binding
[1] = molecular target: T1, kinases (kinome) (Homo sapiens, UniProt O94768); details: DRAK2 (CAMK), IPI00916930
T1 construct: determined in kinobeads assays with mass spectrometry detection of kinases as described previously; endogenous in cells; host or cells: cell lysate
T1 sequence (O94768 1-372): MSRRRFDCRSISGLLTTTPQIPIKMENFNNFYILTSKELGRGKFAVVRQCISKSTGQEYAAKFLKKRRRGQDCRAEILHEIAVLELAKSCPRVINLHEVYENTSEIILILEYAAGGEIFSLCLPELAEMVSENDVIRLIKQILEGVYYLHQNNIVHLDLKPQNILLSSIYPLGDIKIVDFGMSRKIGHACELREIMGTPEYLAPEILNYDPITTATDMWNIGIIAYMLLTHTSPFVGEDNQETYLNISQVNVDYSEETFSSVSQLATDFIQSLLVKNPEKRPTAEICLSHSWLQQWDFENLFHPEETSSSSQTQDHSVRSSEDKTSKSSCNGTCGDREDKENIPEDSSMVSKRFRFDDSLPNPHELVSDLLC
Text: (§1) The protein kinase complement of the human genome (the kinome) was described previously (Manning et al., 2002. Science 298(5600):1912-1934). Sequence accession numbers are defined by the International Protein Index (IPI) (Kersey et al., 2004. Proteomics 4(7):1985-1988).

[2] = molecular target: T2, kinases (kinome) (Homo sapiens, UniProt P36894); details: BMPR1A (TKL), IPI00005731
T2 construct: determined in kinobeads assays with mass spectrometry detection of kinases as described previously; endogenous in cells; host or cells: cell lysate
T2 sequence (P36894 24-532): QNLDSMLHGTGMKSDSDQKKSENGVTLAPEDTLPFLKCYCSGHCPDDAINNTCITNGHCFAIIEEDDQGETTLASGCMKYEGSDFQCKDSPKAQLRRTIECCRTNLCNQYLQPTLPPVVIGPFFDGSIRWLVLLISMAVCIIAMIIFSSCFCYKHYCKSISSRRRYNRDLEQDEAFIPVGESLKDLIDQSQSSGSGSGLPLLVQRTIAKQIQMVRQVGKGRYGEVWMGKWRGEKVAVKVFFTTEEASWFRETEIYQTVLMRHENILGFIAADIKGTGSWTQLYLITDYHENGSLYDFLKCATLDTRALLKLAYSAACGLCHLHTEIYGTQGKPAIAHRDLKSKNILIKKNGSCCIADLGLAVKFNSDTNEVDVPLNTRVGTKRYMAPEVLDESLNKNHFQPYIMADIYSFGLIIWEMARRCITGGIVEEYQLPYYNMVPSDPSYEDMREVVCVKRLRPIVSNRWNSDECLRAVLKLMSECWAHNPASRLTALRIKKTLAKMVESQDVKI
Text: as §1

[3] = molecular target: T3, kinases (kinome) (Homo sapiens, UniProt P37173); details: TGFbR2 (TKL), IPI00164934
T3 construct: determined in kinobeads assays with mass spectrometry detection of kinases as described previously; endogenous in cells; host or cells: cell lysate
T3 sequence (P37173 23-567): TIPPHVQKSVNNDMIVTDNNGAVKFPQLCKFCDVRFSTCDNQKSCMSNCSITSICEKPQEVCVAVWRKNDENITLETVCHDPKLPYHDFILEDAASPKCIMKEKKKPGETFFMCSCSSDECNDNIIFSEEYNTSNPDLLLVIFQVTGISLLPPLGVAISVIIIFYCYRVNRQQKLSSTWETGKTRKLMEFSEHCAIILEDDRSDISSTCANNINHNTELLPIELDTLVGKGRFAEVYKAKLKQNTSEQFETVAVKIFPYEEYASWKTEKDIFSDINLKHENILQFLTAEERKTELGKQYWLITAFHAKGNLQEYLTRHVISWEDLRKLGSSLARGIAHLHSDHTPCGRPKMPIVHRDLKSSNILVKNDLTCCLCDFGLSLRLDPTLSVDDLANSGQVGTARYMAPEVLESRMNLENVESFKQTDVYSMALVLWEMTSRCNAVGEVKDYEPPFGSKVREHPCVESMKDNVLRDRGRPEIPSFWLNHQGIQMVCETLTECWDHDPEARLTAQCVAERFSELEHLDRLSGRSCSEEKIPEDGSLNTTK
Text: as §1

[4] = molecular target: T4, kinases (kinome) (Homo sapiens, UniProt O14976); details: GAK (Other), IPI00298949
T4 construct: determined in kinobeads assays with mass spectrometry detection of kinases as described previously; endogenous in cells; host or cells: cell lysate
T4 sequence (O14976 1-1311): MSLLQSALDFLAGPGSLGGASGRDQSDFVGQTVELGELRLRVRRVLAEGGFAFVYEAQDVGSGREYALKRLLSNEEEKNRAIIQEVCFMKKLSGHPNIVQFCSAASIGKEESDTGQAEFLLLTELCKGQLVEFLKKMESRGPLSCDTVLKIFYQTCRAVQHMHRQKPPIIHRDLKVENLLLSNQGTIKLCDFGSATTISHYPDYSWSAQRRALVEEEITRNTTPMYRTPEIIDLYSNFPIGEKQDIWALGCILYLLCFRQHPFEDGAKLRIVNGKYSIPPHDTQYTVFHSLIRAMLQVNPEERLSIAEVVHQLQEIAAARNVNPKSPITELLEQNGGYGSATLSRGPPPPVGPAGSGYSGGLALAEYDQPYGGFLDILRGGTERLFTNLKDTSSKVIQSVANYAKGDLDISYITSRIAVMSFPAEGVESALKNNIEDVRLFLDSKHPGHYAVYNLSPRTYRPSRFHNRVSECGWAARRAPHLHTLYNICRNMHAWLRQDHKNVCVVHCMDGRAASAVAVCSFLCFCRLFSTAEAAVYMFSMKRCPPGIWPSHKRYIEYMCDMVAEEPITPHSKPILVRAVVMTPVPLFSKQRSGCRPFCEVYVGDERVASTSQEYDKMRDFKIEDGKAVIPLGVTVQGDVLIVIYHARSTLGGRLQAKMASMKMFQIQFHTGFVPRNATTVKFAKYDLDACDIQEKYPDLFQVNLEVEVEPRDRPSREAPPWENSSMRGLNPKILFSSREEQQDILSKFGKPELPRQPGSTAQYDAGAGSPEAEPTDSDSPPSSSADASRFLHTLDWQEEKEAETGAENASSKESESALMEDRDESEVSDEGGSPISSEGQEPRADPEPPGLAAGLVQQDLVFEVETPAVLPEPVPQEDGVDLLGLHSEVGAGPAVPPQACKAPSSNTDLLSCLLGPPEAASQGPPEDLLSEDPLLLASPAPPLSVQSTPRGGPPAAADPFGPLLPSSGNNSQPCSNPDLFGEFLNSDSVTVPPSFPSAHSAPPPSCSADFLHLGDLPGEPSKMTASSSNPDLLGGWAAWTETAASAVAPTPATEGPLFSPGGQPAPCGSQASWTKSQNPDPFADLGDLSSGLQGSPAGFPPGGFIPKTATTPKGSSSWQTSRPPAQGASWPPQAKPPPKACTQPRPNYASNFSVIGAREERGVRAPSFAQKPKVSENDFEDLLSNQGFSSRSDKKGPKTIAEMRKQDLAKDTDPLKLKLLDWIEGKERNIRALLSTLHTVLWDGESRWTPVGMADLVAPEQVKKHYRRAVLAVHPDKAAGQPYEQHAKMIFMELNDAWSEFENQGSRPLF
Text: as §1

[5] = molecular target: T5, kinases (kinome) (Homo sapiens, UniProt P49760); details: CLK2 (CMGC), IPI00028071
T5 construct: determined in kinobeads assays with mass spectrometry detection of kinases as described previously; endogenous in cells; host or cells: cell lysate
T5 sequence (P49760 whole entry): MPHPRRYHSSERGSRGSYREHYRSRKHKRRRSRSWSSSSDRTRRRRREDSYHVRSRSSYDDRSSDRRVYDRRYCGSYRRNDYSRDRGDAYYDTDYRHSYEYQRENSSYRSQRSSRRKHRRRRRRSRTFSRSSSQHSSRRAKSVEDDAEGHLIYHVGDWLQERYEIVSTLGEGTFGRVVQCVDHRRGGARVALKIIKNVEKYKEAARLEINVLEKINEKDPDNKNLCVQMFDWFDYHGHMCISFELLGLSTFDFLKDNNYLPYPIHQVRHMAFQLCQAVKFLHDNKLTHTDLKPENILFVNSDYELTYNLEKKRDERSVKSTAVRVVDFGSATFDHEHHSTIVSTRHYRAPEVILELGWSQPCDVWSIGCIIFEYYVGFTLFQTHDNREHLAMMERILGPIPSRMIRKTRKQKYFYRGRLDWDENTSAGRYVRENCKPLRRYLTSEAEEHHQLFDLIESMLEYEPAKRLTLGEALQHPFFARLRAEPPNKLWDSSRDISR
Text: as §1

[6] = molecular target: T6, kinases (kinome) (Homo sapiens, UniProt Q13418); details: ILK (TKL), IPI00013219
T6 construct: determined in kinobeads assays with mass spectrometry detection of kinases as described previously; endogenous in cells; host or cells: cell lysate
T6 sequence (Q13418 1-452): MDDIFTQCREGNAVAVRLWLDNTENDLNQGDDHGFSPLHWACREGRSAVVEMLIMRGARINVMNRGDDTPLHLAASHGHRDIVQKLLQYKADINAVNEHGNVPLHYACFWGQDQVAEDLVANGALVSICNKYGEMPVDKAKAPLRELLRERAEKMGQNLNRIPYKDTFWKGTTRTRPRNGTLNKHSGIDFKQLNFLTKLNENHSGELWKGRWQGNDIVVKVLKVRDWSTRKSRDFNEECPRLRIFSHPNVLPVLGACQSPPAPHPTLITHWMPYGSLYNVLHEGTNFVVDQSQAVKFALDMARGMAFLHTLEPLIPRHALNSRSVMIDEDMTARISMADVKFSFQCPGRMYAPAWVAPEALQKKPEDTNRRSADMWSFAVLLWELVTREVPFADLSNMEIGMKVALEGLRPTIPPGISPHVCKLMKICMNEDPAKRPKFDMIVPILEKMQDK
Text: as §1

IC50 [1] [µM]	IC50 [2] [µM]	IC50 [3] [µM]	IC50 [4] [µM]	IC50 [5] [µM]	IC50 [6] [µM]	SMILES
> 10	> 10	> 10	> 10	> 10		C[C@H]1COCCN1c1nc(-c2ccc(NC(=O)NC3CC3)cc2)cc(-c2cccnc2S(C)(=O)=O)n1 [Example 46, (S)-1-cyclopropyl-3-(4-(2-(3-methylmorpholino)-6-(2-(methylsulfonyl)pyridin-3-yl)pyrimidin-4-yl)phenyl)urea]
> 10		> 10	> 10		> 10	C[C@H]1COCCN1c1nc(-c2ccc(NC(=O)NC3CC3)cc2)cc(-c2ccccc2S(C)(=O)=O)n1 [Example 4, (S)-1-cyclopropyl-3-(4-(2-(3-methylmorpholino)-6-(2-(methylsulfonyl)phenyl)pyrimidin-4-yl)phenyl)urea]
> 10	> 10	> 10	> 10		> 10	C[C@H]1COCCN1c1nc(-c2ccc(NC(=O)NC3CC3)cc2)cc(-c2cc(F)ccc2S(C)(=O)=O)n1 [Example 40, (S)-1-cyclopropyl-3-(4-(6-(5-fluoro-2-(methylsulfonyl)phenyl)-2-(3-methylmorpholino)pyrimidin-4-yl)phenyl)urea]
	> 10	> 10	> 10		> 10	C[C@H]1COCCN1c1nc(-c2ccc(NC(=O)N[C@H]3CCC[C@@H]3O)cc2)cc(-c2cc(F)ccc2S(C)(=O)=O)n1 [Example 76, 1-(4-(6-(5-fluoro-2-(methylsulfonyl)phenyl)-2-((S)-3-methylmorpholino)pyrimidin-4-yl)phenyl)-3-((1S,2S)-2-hydroxycyclopentyl)urea]
			> 10	> 10	> 10	C[C@H]1COCCN1c1cc(-c2ccccn2)nc(-c2ccc(NC(=O)NCCO)cc2)n1 [Example 43, (S)-1-(2-hydroxyethyl)-3-(4-(4-(3-methylmorpholino)-6-(pyridin-2-yl)pyrimidin-2-yl)phenyl)urea]
	> 10	> 10				C[C@H]1COCCN1c1cc(-c2ccccc2S(C)(=O)=O)nc(-c2ccc(NC(=O)NC3CC3)cc2)n1 [Example 6, (S)-1-cyclopropyl-3-(4-(4-(3-methylmorpholino)-6-(2-(methylsulfonyl)phenyl)pyrimidin-2-yl)phenyl)urea]
	> 10			> 10	> 10	CCNC(=O)Nc1ccc(-c2cc(-c3ccccc3C#N)nc(N3CCOC[C@@H]3C)n2)cc1 [Example 8, (S)-1-(4-(6-(2-cyanophenyl)-2-(3-methylmorpholino)pyrimidin-4-yl)phenyl)-3-ethylurea]
